{"source": "paper PMC8218751", "about": "“Visualizing Borrelia burgdorferi Infection Using a Small-Molecule Imaging Probe” (Journal of Clinical Microbiology, 2021)", "key": {"T. denticola HtpG": {"target": "T. denticola HtpG (Treponema denticola, UniProt P61188)", "sequence (P61188 whole entry)": "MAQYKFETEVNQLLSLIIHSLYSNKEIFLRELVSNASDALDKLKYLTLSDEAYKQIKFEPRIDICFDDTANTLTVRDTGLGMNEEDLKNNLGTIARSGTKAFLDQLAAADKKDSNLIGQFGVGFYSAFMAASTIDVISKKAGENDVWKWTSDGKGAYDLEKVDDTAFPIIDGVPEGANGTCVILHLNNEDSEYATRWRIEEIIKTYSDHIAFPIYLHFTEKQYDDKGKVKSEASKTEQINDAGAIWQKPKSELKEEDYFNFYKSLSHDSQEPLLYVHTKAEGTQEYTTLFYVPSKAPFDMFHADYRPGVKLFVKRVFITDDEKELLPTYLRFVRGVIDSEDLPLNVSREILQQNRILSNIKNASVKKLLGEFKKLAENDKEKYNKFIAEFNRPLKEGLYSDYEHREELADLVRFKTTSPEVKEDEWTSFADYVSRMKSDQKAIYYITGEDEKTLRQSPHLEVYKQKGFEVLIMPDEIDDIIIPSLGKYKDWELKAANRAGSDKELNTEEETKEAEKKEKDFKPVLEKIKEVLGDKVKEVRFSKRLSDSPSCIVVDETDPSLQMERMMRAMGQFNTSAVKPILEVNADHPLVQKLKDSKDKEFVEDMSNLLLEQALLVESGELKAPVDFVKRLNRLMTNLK", "assay": "FLECS assay, elution of GFP-HtpG from ATP Sepharose", "assay_type": "binding", "settings": "in words", "method": "Escherichia coli (strain BL21/DE3) genomic DNA was isolated from a lab culture generated from the cloning/expression bacterium (ThermoFisher catalog no. EC0114) by overnight proteinase K digestion at 56°C, high-salt clarification, and ethanol precipitation. B. burgdorferi (strain B31) and Treponema denticola genomic DNAs were obtained from the American Type Culture Collection (Manassas, VA; ATCC 35210 and 35405, respectively). Human Hsp90-alpha sequences were derived from cDNA generated from total mRNA of the human breast epithelial line, MCF10A. HtpG DNA sequences were PCR cloned from these DNAs using primers designed to allow in-frame cloning with GFP in the isopropyl-β-D-thiogalactopyranoside (IPTG)-inducible bacterial expression vector. 1GFP (pET His6 GFP TEV [tobacco etch virus] LIC [ligation-independent cloning] vector) was a gift from Scott Gradia (Addgene plasmid #29663; http://n2t.net/addgene:29663; RRID:Addgene_29663). Fusion protein cloning was done using the ligation-independent cloning procedure via single-nucleotide T4 DNA polymerase treatment of vector and purified PCR products followed by annealing of complementary single-strand ends before transformation into DH5 E. coli. Proper fusion junctions and fidelity of cloned inserts were confirmed by sequencing, and then the plasmid was transformed into E. coli BL21(DE3) for protein expression. Fusion protein synthesis was induced by incubation with 1 mM IPTG or autoinduction ([17]). Production of GFP-HtpG/Hsp90 was confirmed by identification of GFP and HtpG peptides with matrix-assisted laser desorption ionization (MALDI) using an AB Sciex 5800 time of flight (TOF)/TOF mass spectrometer in the induced band identified on an SDS-PAGE gel. To complete binding curves, several liters of induced cultures was generated, pelleted with centrifugation of 3,150 × g for 15 min, flash frozen in liquid nitrogen, and then stored at −80°C until subsequent fluorescent-linked enzyme chemoproteomic strategy (FLECS) analysis.\nγ-linked ATP Sepharose matrix was generated as described previously by the Haystead lab ([18]). BL21 bacterial pellets expressing GFP-fusion proteins of E. coli, B. burgdorferi, and T. denticola HtpGs and human Hsp90 were lysed with B-PER complete bacterial protein extraction reagent (Thermo Scientific catalog number 89821) and centrifuged at 96,000 relative centrifugal force (RCF) (Beckman Coulter type 45 Ti fixed-angle rotor) to pellet insoluble BL21 material. The clarified lysate was added to a column containing ATP-bound Sepharose. The column was washed with low-salt buffer (150 mM NaCl, 25 mM HEPES, pH 7.4, 1 mM dithiothreitol [DTT], and 60 mM MgCl2), followed by high-salt buffer (1 M NaCl, 25 mM HEPES, pH 7.4, 1 mM DTT, 0.1% IGEPAL, and 60 mM MgCl2) and once again low-salt buffer to remove unbound protein. Next, the resin with bound proteins (50 μl) was transferred to a 0.2-μm polyvinylidene fluoride filter 96-well plate (Corning) sitting on top of a black flat-bottomed 96-well catch plate (Corning). Small molecules or ATP was added to each well (50 μl), and the plates were centrifuged using an Eppendorf 5810 centrifuge at 1,100 rpm (220 RCF) for 1 min. The eluted proteins were measured in a fluorescent plate reader to detect the GFP. Some compounds are autofluorescent, and so to confirm fusion protein elution, samples were analyzed by classic SDS-PAGE methods followed by silver staining and MALDI mass spectrometry using a AB Sciex 5800 TOF/TOF mass spectrometer.\nSubtle single amino acid differences are present within the catalytic clefts of these proteins, especially between residues that contact the nucleotide. […] We therefore reasoned that these differences may be sufficient to design small molecules that can similarly discriminate HtpG of stealth organisms. To test this hypothesis, we utilized a fluorescent-linked enzyme chemoproteomic strategy (FLECS) assay to test known Hsp90 inhibitors ([18]) for binding to various HtpG constructs. […]"}, "B. burgdorferi": {"test_system": "B. burgdorferi", "assay": "Fixed or denatured B. burgdorferi imaging, flagellin costaining and CLEM", "assay_type": "cell-based, Borrelia burgdorferi", "method": "Bacterial cultures in logarithmic phase were washed and resuspended in phosphate-buffered saline (PBS). Suspension was added to a positively charged slide, and an equal volume of 3:1 methanol-acetic acid was added to the suspension for 5 min. Slides were washed with 0.01% Tween 20/PBS (PBS-T) followed by PBS. Ten percent nonfat dry milk/PBS blocking solution was added for 45 min. Slides were washed with PBS and incubated for 45 min with 1:500 flagellin antibody (Rockland 200-401-C14) diluted in 1% nonfat dry milk/PBS. Slides were washed with PBS-T and then incubated for 30 min with FITC-conjugated anti-rabbit (Invitrogen catalog number A11008; 1:500 dilution), containing 10 μM HS-198. […].\nCorrelative light electron microscopy (CLEM) was performed by Shannon Modla and Jeff Caplan at the bioimaging center of the Delaware Biotechnology Institute. Cells were attached to an Ibidi μ-dish containing an imprinted 500-μm cell location grid using 4% paraformaldehyde (PFA) for 20 min. Cells were then incubated with 10 μM HS-198 for 10 min followed by a PBS wash. PBS filled the dish to the top for transport to the Delaware Institute for further processing. The cells were then imaged using Zeiss 880 Airyscan. […]"}}, "note": "Entries after “also recorded” stand apart in the source; their conditions may differ."}
{"compound": "Cc1nn(-c2ccc(C(=O)N(C)C)c(NCCCOCCOCCOCCOCCOCCCNCc3ccc(C(=C\\C=C4/N(CCCCS(=O)(=O)O)c5ccccc5C4(C)C)/C=C/C4=[N+](CCCCS(=O)(=O)[O-])c5ccccc5C4(C)C)cc3)c2)c2c1C(=O)CC(C)(C)C2", "note": "[HS-198]", "values": [{"measurement": "Release of T. denticola HtpG from immobilized ATP resin", "setting": "T. denticola HtpG", "result": "unable to release; also recorded: inactive"}, {"measurement": "Localization within the spirochete", "setting": "B. burgdorferi; 10 μM, flagellin antibody costaining, CLEM", "result": "accumulated inside the protoplasmic cylinder"}, {"measurement": "Staining of denatured spirochetes", "setting": "B. burgdorferi; heat denaturation (5 min at 90°C or 15 min at 50°C) or alcohol fixation (2:1 ethanol), data not shown", "result": "capable of staining spirochetes"}]}
